System: K24384-001-R-PDC complex spheroid viability
Experiment: Anticancer human tumor K24384-001-R-PDC patient-derived pancreatic adenocarcinoma cell line growth inhibition
Conditions: for IC50: curve of first compound; for viability, T/C: stronger effect = lower value
Source text: Multicellular complex tumor spheroid response to LSD1 Inhibitor Iadademstat in combination with a variety of drugs and investigational agents in selected tumor cell lines
The current study was undertaken to assess response to LSD1 inhibitors in combination with standard-of-care drugs and investigational agents in solid tumor complex spheroid models as well as in the K-562 leukemia. Complex spheroids include a stromal component modeled by human endothelial cells (HUVEC) and fibroblasts modeled by human mesenchymal stem cells (MSCs). The concentration ranges selected for each drug and investigational agent were based upon clinically achievable concentrations if the clinical Cmax of the agent was known.
Compounds. The drugs and investigational agents used in this study are listed on Table 1. All of the agents used, including staurosporine (NSC755774) and gemcitabine (NSC613327), were obtained from the Developmental Therapeutics Program, NCI. FDA-approved anticancer drugs are available from the NCI at http://dtp.nci.nih.gov/branches/dscb/oncology_drugset_explanation.html. Drugs and investigational agents were >95% pure by proton nuclear magnetic resonance (NMR) and liquid chromatography/mass spectrometry (LC/MS). Stock solutions were prepared at 400x in DMSO, stored at -70 degrees C, and diluted in fresh medium prior to their use. The final concentration of DMSO in cell culture wells never exceeded 0.25% (v/v). The FDA-approved anticancer drug set is available from the Developmental Therapeutics Program at https://dtp.cancer.gov/organization/dscb/obtaining/available_plates.htm. All drugs and investigational agents were tested over a range starting from a high concentration at or near the clinical Cmax and decreasing in half-log increments. If the clinical Cmax for an agent had not been determined, the highest concentration tested was 10 microM.
Cell Lines. The patient-derived cancer cell (PDC) lines: 292921-168-R-J2-PDC, K24384-001-R-PDC, and 521955-158-R2-J5-PDC pancreatic carcinomas, 556581-035-R-J1 ovarian carcinoma, 324938-238-R-J1-PDC, 855422-203-R-J1-PDC and 883617-216-R-J1-PDC urothelial bladder carcinomas, 743489-274-T-PDC renal cell carcinoma, 138582-R-J1 Merkel cell tumor, K60290-347-R-J1 and K57222-313-R-J1-PDC glioblastomas, 653999-131-R-J2-PDC, LG0703-F948-PDC, and 349418-098-R-PDC non-small cell lung carcinomas, 885512-296-R-J2-PDC, 171881-019-R-J1-PDC breast carcinomas and 186277-243-T-J2-PDC and 233499-124-R-J2-PDC colon carcinomas were obtained from the NCI Patient-Derived Models Repository (PDMR, https://pdmr.cancer.gov). The established cell lines NCI/ADR-RES (RRID:CVCL_14520 and OVCAR-5 (RRID:CVCL_1628) ovarian carcinomas, 786-O (RRID:CVCL_1051) and A498 (RRID:CVCL_A498) renal cell carcinoma, NCI-H211 (ATCC, cat. CRL-5824; RRID:CVCL_1529), NCI-H196 (ATCC, cat. CRL-5823, RRID:CVCL_1509), SW 1271 (ATCC, cat. CRL-2177, RRID:CVCL_1716) and NCI-H1876 (ATCC, cat. CRL-5902, RRID:CVCL_1503) small cell lung carcinomas, MDA-MB-231 (RRID:CVCL_0062) and MDA-MB-468 (RRID:CVCL_0419)breast carcinomas (10-12). Pooled donor human umbilical vein endothelial cells (HUVEC, Lonza, cat. CC-2519) and human mesenchymal stem cells (hMSC, Lonza, cat. PT-2501) were purchased from Lonza (Walkersville, MD).
Cell Culture. All cells were maintained in an incubator at 37 degrees C and 5% CO2 with 95% humidity. The PDC lines were cultured according to standard operating procedures established by the NCI PDMR (https://pdmr.cancer.gov). Briefly all PDCs were thawed and cultured in Matrigel-coated flasks prepared with a working solution of 1X Ham's F-12 nutrient mix, without supplementation (Invitrogen, Waltham, MA, cat. 11765054), 100 U/mL penicillin-streptomycin (Invitrogen, cat. 15140122), and 2.5% Matrigel (Corning Inc., Corning, NY, cat. 354248) for the first three passages. […]

[1] = second compound 0.1 µM, first compound 0.00316 µM
[2] = second compound 0.1 µM, first compound 0.01 µM
[3] = second compound 0.1 µM, first compound 0.0316 µM
[4] = second compound 0.1 µM, first compound 0.1 µM
[5] = second compound 0.316 µM, first compound 0.00316 µM
[6] = second compound 0.316 µM, first compound 0.01 µM
[7] = second compound 0.316 µM, first compound 0.0316 µM
[8] = second compound 0.316 µM, first compound 0.1 µM
[9] = second compound 1 µM, first compound 0.00316 µM
[10] = second compound 1 µM, first compound 0.01 µM
[11] = second compound 1 µM, first compound 0.0316 µM
[12] = second compound 1 µM, first compound 0.1 µM
[13] = second compound 3.16 µM, first compound 0.00316 µM
[14] = second compound 3.16 µM, first compound 0.01 µM
[15] = second compound 3.16 µM, first compound 0.0316 µM
[16] = second compound 3.16 µM, first compound 0.1 µM
[17] = second compound 10 µM, first compound 0.00316 µM
[18] = second compound 10 µM, first compound 0.01 µM
[19] = second compound 10 µM, first compound 0.0316 µM
[20] = second compound 10 µM, first compound 0.1 µM
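Note: spheroids exposed to agents for seven days before luminescence viability reading.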
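Throughout, for viability, T/C: 100% = DMSO vehicle control viability.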

For CC[C@@]1(O)C(=O)OCc2c1cc1n(c2=O)Cc2cc3c(CN(C)C)c(O)ccc3nc2-1 + NC1CC1c1ccc(-c2cccc(O)c2)cc1, the IC50 (second compound 0.1 µM) was 10.4 nM, the IC50 (second compound 0.316 µM) was 12.1 nM and the IC50 (second compound 1 µM) was 9.47 nM. For the same molecule, the IC50 (second compound 3.16 µM) was 8.68 nM, the IC50 (second compound 10 µM) was 11.4 nM and the viability, T/C (second compound 0.1 µM, first compound 0.000316 µM) was 72.3%. The viability, T/C (second compound 0.1 µM, first compound 0.001 µM) was 81.5%, the viability, T/C [1] was 79.9% and the viability, T/C [2] was 50.3%. It also gave a viability, T/C [3] of 43.7%, a viability, T/C [4] of 33.2% and a viability, T/C (second compound 0.316 µM, first compound 0.000316 µM) of 76.1%. The viability, T/C (second compound 0.316 µM, first compound 0.001 µM) was 90.1%, the viability, T/C [5] was 62.9% and the viability, T/C [6] was 53.5%. It also gave a viability, T/C [7] of 43.7%, a viability, T/C [8] of 35.9% and a viability, T/C (second compound 1 µM, first compound 0.000316 µM) of 78.5%. It also gave a viability, T/C (second compound 1 µM, first compound 0.001 µM) of 89%, a viability, T/C [9] of 73.3% and a viability, T/C [10] of 49.8%. It also gave a viability, T/C [11] of 33.5%, a viability, T/C [12] of 35.3% and a viability, T/C (second compound 3.16 µM, first compound 0.000316 µM) of 75.8%. For the same molecule, the viability, T/C (second compound 3.16 µM, first compound 0.001 µM) was 79.2%, the viability, T/C [13] was 77.6% and the viability, T/C [14] was 46.1%. It also gave a viability, T/C [15] of 42%, a viability, T/C [16] of 33.9% and a viability, T/C (second compound 10 µM, first compound 0.000316 µM) of 79%. The viability, T/C (second compound 10 µM, first compound 0.001 µM) was 81.7%, the viability, T/C [17] was 84.4% and the viability, T/C [18] was 51.1%. The viability, T/C [19] was 40.9% and the viability, T/C [20] was 41.1%.

COc1cc(C2c3cc4c(cc3C(OC3OC5COC(C)OC5C(O)C3O)C3COC(=O)C23)OCO4)cc(OC)c1O (stereo not given) + NC1CC1c1ccc(-c2cccc(O)c2)cc1 showed an IC50 (second compound 0.1 µM) of 263 nM, an IC50 (second compound 0.316 µM) of 199 nM and an IC50 (second compound 1 µM) of 238 nM. For the same molecule, the IC50 (second compound 3.16 µM) was 275 nM, the IC50 (second compound 10 µM) was 317 nM and the viability, T/C (second compound 0.1 µM, first compound 0.00949 µM) was 96.9%. The viability, T/C (second compound 0.1 µM, first compound 0.03 µM) was 76.4%, the viability, T/C (second compound 0.1 µM, first compound 0.0949 µM) was 62.4% and the viability, T/C (second compound 0.1 µM, first compound 0.3 µM) was 47.8%. For the same molecule, the viability, T/C (second compound 0.1 µM, first compound 0.949 µM) was 40.5%, the viability, T/C (second compound 0.1 µM, first compound 3 µM) was 38.2% and the viability, T/C (second compound 0.316 µM, first compound 0.00949 µM) was 83.1%. The viability, T/C (second compound 0.316 µM, first compound 0.03 µM) was 88.7%, the viability, T/C (second compound 0.316 µM, first compound 0.0949 µM) was 63.4% and the viability, T/C (second compound 0.316 µM, first compound 0.3 µM) was 44.2%. It also gave a viability, T/C (second compound 0.316 µM, first compound 0.949 µM) of 39.9%, a viability, T/C (second compound 0.316 µM, first compound 3 µM) of 34.5% and a viability, T/C (second compound 1 µM, first compound 0.00949 µM) of 74.7%. It also gave a viability, T/C (second compound 1 µM, first compound 0.03 µM) of 77.5%, a viability, T/C (second compound 1 µM, first compound 0.0949 µM) of 60.5% and a viability, T/C (second compound 1 µM, first compound 0.3 µM) of 45.6%. The viability, T/C (second compound 1 µM, first compound 0.949 µM) was 40.8%, the viability, T/C (second compound 1 µM, first compound 3 µM) was 30.2% and the viability, T/C (second compound 3.16 µM, first compound 0.00949 µM) was 73.5%. It also gave a viability, T/C (second compound 3.16 µM, first compound 0.03 µM) of 82.1%, a viability, T/C (second compound 3.16 µM, first compound 0.0949 µM) of 66% and a viability, T/C (second compound 3.16 µM, first compound 0.3 µM) of 47.9%. It also gave a viability, T/C (second compound 3.16 µM, first compound 0.949 µM) of 41.5%, a viability, T/C (second compound 3.16 µM, first compound 3 µM) of 32.8% and a viability, T/C (second compound 10 µM, first compound 0.00949 µM) of 90.7%. For the same molecule, the viability, T/C (second compound 10 µM, first compound 0.03 µM) was 84.9%, the viability, T/C (second compound 10 µM, first compound 0.0949 µM) was 62.8% and the viability, T/C (second compound 10 µM, first compound 0.3 µM) was 53.6%. For the same molecule, the viability, T/C (second compound 10 µM, first compound 0.949 µM) was 41.3% and the viability, T/C (second compound 10 µM, first compound 3 µM) was 42.8%.

Work on Nc1ncn(C2CC(O)C(CO)O2)c(=O)n1 (stereo not given) + NC1CC1c1ccc(-c2cccc(O)c2)cc1 yielded an IC50 (second compound 0.1 µM) greater than 1000 nM, an IC50 (second compound 0.316 µM) greater than 1000 nM and an IC50 (second compound 1 µM) greater than 1000 nM. It also gave an IC50 (second compound 3.16 µM) greater than 1000 nM, an IC50 (second compound 10 µM) greater than 1000 nM and a viability, T/C [1] of 89.9%. It also gave a viability, T/C [2] of 86.7%, a viability, T/C [3] of 97.5% and a viability, T/C [4] of 80.2%. For the same molecule, the viability, T/C (second compound 0.1 µM, first compound 0.316 µM) was 70.4%, the viability, T/C (second compound 0.1 µM, first compound 1 µM) was 79% and the viability, T/C [5] was 78.3%. It also gave a viability, T/C [6] of 98.4%, a viability, T/C [7] of 86.5% and a viability, T/C [8] of 85.3%. For the same molecule, the viability, T/C (second compound 0.316 µM, first compound 0.316 µM) was 78.6%, the viability, T/C (second compound 0.316 µM, first compound 1 µM) was 68.9% and the viability, T/C [9] was 97.8%. It also gave a viability, T/C [10] of 91.3%, a viability, T/C [11] of 84% and a viability, T/C [12] of 67.9%. The viability, T/C (second compound 1 µM, first compound 0.316 µM) was 72.5%, the viability, T/C (second compound 1 µM, first compound 1 µM) was 70.6% and the viability, T/C [13] was 88.4%. The viability, T/C [14] was 88.4%, the viability, T/C [15] was 87.8% and the viability, T/C [16] was 79.2%. It also gave a viability, T/C (second compound 3.16 µM, first compound 0.316 µM) of 80.1%, a viability, T/C (second compound 3.16 µM, first compound 1 µM) of 82.6% and a viability, T/C [17] of 101%. It also gave a viability, T/C [18] of 97.2%, a viability, T/C [19] of 89.4% and a viability, T/C [20] of 90.3%. It also gave a viability, T/C (second compound 10 µM, first compound 0.316 µM) of 77.9% and a viability, T/C (second compound 10 µM, first compound 1 µM) of 87.7%.

Source: PubChem BioAssay AID1918949 (Molecular Pharmacology Branch, DTP, NCI, 2023)
